# Results reported in patent US8623919B2, “Method of synthesizing S-allyl-cysteine analogues and their therapeutic application in treating myocardial infarction” (Fudan University, priority 2007, dated 2014).
# Tests used:
# Type in all cases: in vivo, SD rats
# [1] = test system: Bax; assay: Western blot of Bax protein in left ventricle; details: MI rats, 50 mg/Kg/day, p<0.01
# Text: (§1) Animals were assigned and prepared the same as in Example 7, and dosages of SPRC and SAC were used the same in this example as in Example 7.
# [2] = test system: rats following MI injury; assay: Infarct size after TTC staining in rats following MI injury; details: 50 mg/Kg/day intraperitoneal, 7 days before and 2 days after ligation, 48 h after surgery, saline 36.0±1.3%
# Procedure: SPRC and SAC were dissolved in saline (vehicle). Male SD rats (weight 200-250 g) were randomly assigned to […] treatment groups: group (1) Sham group: Sham-treated with saline (n=4), (2) Sham+SPRC group: Sham-treated with SPRC (50 mg/Kg/day) (n=4), (3) Sham+SAC group: Sham-treated with SAC (50 mg/Kg/day) (n=4), (4) MI group: MI treated with saline (n=8), (5) MI+SPRC group: MI treated with SPRC (50 mg/Kg/day) (n=8), (6) MI+SAC group: MI treated with SAC (50 mg/Kg/day) (n=8). Rats were pre-treated for seven days with each SAC analogues respectively via an intraperitoneal injection once daily before they were used for MI model studies. […] Briefly, the rats were anesthetized with 7% choral hydrate (60 mg/kg intraperitoneal injection), endotracheally intubated and mechanically ventilated with room air, respiratory rate 100 breaths/min, tidal volume 2.5 ml with a rodent ventilator (DHX-150, China). ECG was recorded in the anaesthetized animal for a period of one minute using the Animal Mflab200 amplifier (Produced in China). A left thoracotomy was performed and the third intercostal space was exposed. […] Then incisions were sutured and the chests were closed. […] Forty eight hours after the surgery, ECG was recorded for each rat in each group. […] To evaluate the effect of SPRC and SAC on MI, infarct size were measured after TTC staining (FIG. 12).
# [3] = test system: CSE; assay: Western blot of CSE protein in left ventricle; details: MI rats, 50 mg/Kg/day, p<0.01
# Text: as §1
smiles,measurement,setting,value
"C#CCSC[C@H](N)C(=O)O [SPRC, S-propargyl-cysteine]",Bax protein levels,[1],down-regulated
same,infarct size/total area of myocardium,[2],20.8±2.4%
same,CSE protein expression,[3],up-regulated
